Reference: the supplement of paper PMC10307832

Key:
Assay in all cases: relative viability (nuclei count vs DMSO), 5 days (fraction); higher = more cells survive
NCI-H1355 = test system: NCI-H1355
Outline: (§1)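 Dosing by pin tool came one day after lung cancer cell lines were seeded in 1536-well plates, using either one drug or a fixed anchor-drug dose plus five library-drug doses (not always all listed) in √10 steps. After 5 days, nuclei were counted on 4× images. Relative viability is treated-well nuclei count divided by vehicle-well nuclei count, and values are medians of duplicate plates.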

HCC-78 = test system: HCC-78
Outline: as §1

NCI-H2342 = test system: NCI-H2342
Outline: as §1

LCLC-97TM1 = test system: LCLC-97TM1
Outline: as §1

NCI-H1975 = test system: NCI-H1975
Outline: as §1

SK-MES-1 = test system: SK-MES-1
Outline: as §1

PC-3 [JPC-3] = test system: PC-3 [JPC-3]
Outline: as §1

LC-2-ad = test system: LC-2-ad
Outline: as §1

NCI-H358 = test system: NCI-H358
Outline: as §1

NCI-H650 = test system: NCI-H650
Outline: as §1

NCI-H838 = test system: NCI-H838
Outline: as §1

LK-2 = test system: LK-2
Outline: as §1

BEN = test system: BEN
Outline: as §1

LU99A = test system: LU99A
Outline: as §1

LXF-289 = test system: LXF-289
Outline: as §1

NCI-H1651 = test system: NCI-H1651
Outline: as §1

NCI-H1944 = test system: NCI-H1944
Outline: as §1

NCI-H2087 = test system: NCI-H2087
Outline: as §1

ChaGo-K-1 = test system: ChaGo-K-1
Outline: as §1

NCI-H661 = test system: NCI-H661
Outline: as §1

NCI-H1666 = test system: NCI-H1666
Outline: as §1

CCN(CC)CCCCNc1ncc2cc(-c3cc(OC)cc(OC)c3)c(NC(=O)NC(C)(C)C)nc2n1 + CC(=O)c1c(C)c2cnc(Nc3ccc(N4CCNCC4)cn3)nc2n(C2CCCC2)c1=O [Palbociclib] (partner 0.5 µM)
relative viability (NCI-H1355; first compound 0.01 µM): 0.378
relative viability (NCI-H1355; first compound 0.03162 µM): 0.402
relative viability (NCI-H1355; first compound 0.1 µM): 0.465
relative viability (NCI-H1355; first compound 0.3162 µM): 0.376
relative viability (NCI-H1355; first compound 1 µM): 0.364
relative viability (HCC-78; first compound 0.01 µM): 0.465
relative viability (HCC-78; first compound 0.03162 µM): 0.448
relative viability (HCC-78; first compound 0.1 µM): 0.525
relative viability (HCC-78; first compound 0.3162 µM): 0.45
relative viability (HCC-78; first compound 1 µM): 0.465
relative viability (NCI-H2342; first compound 0.01 µM): 0.514
relative viability (NCI-H2342; first compound 0.03162 µM): 0.514
relative viability (NCI-H2342; first compound 0.1 µM): 0.528
relative viability (NCI-H2342; first compound 0.3162 µM): 0.548
relative viability (NCI-H2342; first compound 1 µM): 0.556
relative viability (LCLC-97TM1; first compound 0.01 µM): 0.205
relative viability (LCLC-97TM1; first compound 0.03162 µM): 0.203
relative viability (LCLC-97TM1; first compound 0.1 µM): 0.297
relative viability (LCLC-97TM1; first compound 0.3162 µM): 0.238
relative viability (LCLC-97TM1; first compound 1 µM): 0.218
relative viability (NCI-H1975; first compound 0.01 µM): 0.608
relative viability (NCI-H1975; first compound 0.03162 µM): 0.498
relative viability (NCI-H1975; first compound 0.1 µM): 0.589
relative viability (NCI-H1975; first compound 0.3162 µM): 0.697
relative viability (NCI-H1975; first compound 1 µM): 0.475
relative viability (SK-MES-1; first compound 0.01 µM): 0.394
relative viability (SK-MES-1; first compound 0.03162 µM): 0.345
relative viability (SK-MES-1; first compound 0.1 µM): 0.32
relative viability (SK-MES-1; first compound 0.3162 µM): 0.268
relative viability (SK-MES-1; first compound 1 µM): 0.297
relative viability (PC-3 [JPC-3]; first compound 0.03162 µM): 0.607
relative viability (PC-3 [JPC-3]; first compound 0.1 µM): 0.616
relative viability (PC-3 [JPC-3]; first compound 0.3162 µM): 0.539
relative viability (PC-3 [JPC-3]; first compound 1 µM): 0.58
relative viability (LC-2-ad; first compound 0.01 µM): 0.503
relative viability (LC-2-ad; first compound 0.03162 µM): 0.486
relative viability (LC-2-ad; first compound 0.1 µM): 0.491
relative viability (LC-2-ad; first compound 0.3162 µM): 0.589
relative viability (LC-2-ad; first compound 1 µM): 0.473
relative viability (NCI-H358; first compound 0.01 µM): 0.146
relative viability (NCI-H358; first compound 0.03162 µM): 0.123
relative viability (NCI-H358; first compound 0.1 µM): 0.159
relative viability (NCI-H358; first compound 0.3162 µM): 0.139
relative viability (NCI-H358; first compound 1 µM): 0.136
relative viability (NCI-H650; first compound 0.01 µM): 0.282
relative viability (NCI-H650; first compound 0.03162 µM): 0.369
relative viability (NCI-H650; first compound 0.1 µM): 0.331
relative viability (NCI-H650; first compound 0.3162 µM): 0.308
relative viability (NCI-H650; first compound 1 µM): 0.32
relative viability (NCI-H838; first compound 0.01 µM): 0.197
relative viability (NCI-H838; first compound 0.03162 µM): 0.223
relative viability (NCI-H838; first compound 0.1 µM): 0.204
relative viability (NCI-H838; first compound 0.3162 µM): 0.213
relative viability (NCI-H838; first compound 1 µM): 0.182
relative viability (LK-2; first compound 0.01 µM): 0.65
relative viability (LK-2; first compound 0.03162 µM): 0.66
relative viability (LK-2; first compound 0.1 µM): 0.637
relative viability (LK-2; first compound 0.3162 µM): 0.502
relative viability (LK-2; first compound 1 µM): 0.156
relative viability (BEN; first compound 0.01 µM): 0.489
relative viability (BEN; first compound 0.03162 µM): 0.417
relative viability (BEN; first compound 0.1 µM): 0.493
relative viability (BEN; first compound 0.3162 µM): 0.524
relative viability (BEN; first compound 1 µM): 0.475
relative viability (LU99A; first compound 0.01 µM): 0.364
relative viability (LU99A; first compound 0.03162 µM): 0.393
relative viability (LU99A; first compound 0.1 µM): 0.457
relative viability (LU99A; first compound 0.3162 µM): 0.446
relative viability (LU99A; first compound 1 µM): 0.338
relative viability (LXF-289; first compound 0.01 µM): 0.628
relative viability (LXF-289; first compound 0.03162 µM): 0.581
relative viability (LXF-289; first compound 0.1 µM): 0.673
relative viability (LXF-289; first compound 0.3162 µM): 0.61
relative viability (LXF-289; first compound 1 µM): 0.559
relative viability (NCI-H1651; first compound 0.01 µM): 0.539
relative viability (NCI-H1651; first compound 0.03162 µM): 0.511
relative viability (NCI-H1651; first compound 0.1 µM): 0.547
relative viability (NCI-H1651; first compound 0.3162 µM): 0.541
relative viability (NCI-H1651; first compound 1 µM): 0.47
relative viability (NCI-H1944; first compound 0.01 µM): 0.35
relative viability (NCI-H1944; first compound 0.03162 µM): 0.345
relative viability (NCI-H1944; first compound 0.1 µM): 0.312
relative viability (NCI-H1944; first compound 0.3162 µM): 0.348
relative viability (NCI-H1944; first compound 1 µM): 0.278
relative viability (NCI-H2087; first compound 0.01 µM): 0.154
relative viability (NCI-H2087; first compound 0.03162 µM): 0.219
relative viability (NCI-H2087; first compound 0.1 µM): 0.206
relative viability (NCI-H2087; first compound 0.3162 µM): 0.234
relative viability (NCI-H2087; first compound 1 µM): 0.225
relative viability (ChaGo-K-1; first compound 0.01 µM): 0.98
relative viability (ChaGo-K-1; first compound 0.03162 µM): 0.915
relative viability (ChaGo-K-1; first compound 0.1 µM): 1.08
relative viability (ChaGo-K-1; first compound 0.3162 µM): 0.997
relative viability (ChaGo-K-1; first compound 1 µM): 0.823
relative viability (NCI-H661; first compound 0.01 µM): 0.394
relative viability (NCI-H661; first compound 0.03162 µM): 0.41
relative viability (NCI-H661; first compound 0.1 µM): 0.418
relative viability (NCI-H661; first compound 0.3162 µM): 0.444
relative viability (NCI-H661; first compound 1 µM): 0.38
relative viability (NCI-H1666; first compound 0.01 µM): 0.666
relative viability (NCI-H1666; first compound 0.03162 µM): 0.626
relative viability (NCI-H1666; first compound 0.1 µM): 0.613
relative viability (NCI-H1666; first compound 0.3162 µM): 0.649
relative viability (NCI-H1666; first compound 1 µM): 0.613
